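Where inhibition never reached the appropriate level, the endpoint shown equals the highest concentration tested. Otherwise, values were interpolated linearly from a five-concentration, 48-hour dose response in 96-well plates. Definition used: TGI = concentration required for complete inhibition of growth.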
Tests used:
Assay in all cases: inhibition of tumour cell growth, NCI panel, 48 h
[1] = system: SNB-19 CNS
[2] = system: XF 498 CNS
[3] = system: HT29 colon
[4] = system: OVCAR-8 ovarian
[5] = system: UO-31 renal
[6] = system: M19-MEL melanoma
[7] = system: K-562 leukemia
[8] = system: EKVX NSCLC
[9] = system: A549 NSCLC
[10] = system: UACC-62 melanoma
[11] = system: DMS 273 small cell lung
[12] = system: NCI-H522 lung
[13] = system: SF-268 CNS
[14] = system: UACC-257 melanoma
[15] = system: OVCAR-3 ovarian
[16] = system: HL-60(TB) leukemia
[17] = system: OVCAR-5 ovarian
[18] = system: SF-539 CNS
[19] = system: SK-MEL-5 melanoma
[20] = system: MALME-3M melanoma
[21] = system: HCC-2998 colon
[22] = system: CCRF-CEM leukemia
[23] = system: SN12C renal
[24] = system: SK-MEL-2 melanoma
[25] = system: NCI-H460 lung
[26] = system: NCI-H226 lung
[27] = system: TK-10 renal
[28] = system: SF-295 CNS
[29] = system: CAKI-1 renal
[30] = system: HCT-116 colon
[31] = system: HOP-62 NSCLC
[32] = system: DMS 114 small cell lung
[33] = system: A498 renal
[34] = system: SK-OV-3 ovarian
[35] = system: SW-620 colon
[36] = system: KM20L2 colon
[37] = system: SNB-78 CNS
[38] = system: MOLT-4 leukemia
[39] = system: LXFL 529 NSCLC
[40] = system: HOP-18 NSCLC
[41] = system: KM12 colon
[42] = system: M14 melanoma
[43] = system: RPMI-8226 leukemia
[44] = system: OVCAR-4 ovarian
[45] = system: 786-0 renal
[46] = system: SK-MEL-28 melanoma
[47] = system: HCT-15 colon
[48] = system: SNB-75 CNS
[49] = system: LOX IMVI melanoma
[50] = system: IGROV1 ovarian
[51] = system: RXF 393 renal
[52] = system: SR leukemia
[53] = system: DLD-1 colon
[54] = system: HOP-92 NSCLC
[55] = system: U251 CNS
[56] = system: NCI-H23 lung
[57] = system: COLO 205 colon
[58] = system: ACHN renal
[59] = system: PC-3 prostate
[60] = system: MCF7 breast
[61] = system: MDA-MB-231 breast
[62] = system: DU-145 prostate
[63] = system: HS 578T breast
[64] = system: NCI/ADR-RES ovarian
[65] = system: T-47D breast
[66] = system: BT-549 breast
[67] = system: MDA-MB-435
[68] = system: MDA-N

N#C/C(=C\c1cc2ccccc2c2ccccc12)c1ccccc1
TGI [1]: 45.4 µM | TGI [2]: 12.5 µM | TGI [3]: 18.1 µM | TGI [4]: > 100 µM | TGI [5]: 57.7 µM | TGI [6]: > 100 µM | TGI [7]: 13.7 µM | TGI [8]: 75.2 µM | TGI [9]: > 100 µM | TGI [10]: 28.9 µM | TGI [11]: 8.73 µM | TGI [12]: > 29.9 µM | TGI [13]: > 53.9 µM | TGI [14]: > 89 µM | TGI [15]: > 25.6 µM | TGI [16]: 14.8 µM | TGI [17]: 98.6 µM | TGI [18]: 19.8 µM | TGI [19]: 19.7 µM | TGI [20]: 19.5 µM | TGI [21]: 59.2 µM | TGI [22]: 36.2 µM | TGI [23]: > 95.8 µM | TGI [24]: 15.4 µM | TGI [25]: > 36.1 µM | TGI [26]: > 100 µM | TGI [27]: > 58.9 µM | TGI [28]: 19.9 µM | TGI [29]: > 37.8 µM | TGI [30]: 18.2 µM | TGI [31]: 17.6 µM | TGI [32]: > 36.1 µM | TGI [33]: 38.3 µM | TGI [34]: 39 µM | TGI [35]: 24.9 µM | TGI [36]: 13.8 µM | TGI [37]: 34.2 µM | TGI [38]: 28 µM | TGI [39]: > 100 µM | TGI [40]: > 61.2 µM | TGI [41]: > 52.3 µM | TGI [42]: 30 µM | TGI [43]: > 51.1 µM | TGI [44]: 34.6 µM | TGI [45]: 18 µM | TGI [46]: > 100 µM | TGI [47]: 39.4 µM | TGI [48]: 10.9 µM | TGI [49]: > 100 µM | TGI [50]: > 51.8 µM | TGI [51]: 18.6 µM | TGI [52]: 7.91 µM | TGI [53]: > 90.2 µM | TGI [54]: > 71.7 µM | TGI [55]: 36.8 µM | TGI [56]: > 95 µM | TGI [57]: 10.6 µM | TGI [58]: > 83.5 µM

CCCS(=O)(=O)/C(=C(\c1ccc(Br)cc1)S(=O)(=O)CCC)c1ccc(Br)cc1
TGI [1]: > 10 µM | TGI [2]: > 10 µM | TGI [3]: > 10 µM | TGI [4]: > 10 µM | TGI [5]: > 10 µM | TGI [6]: > 10 µM | TGI [7]: > 10 µM | TGI [8]: > 10 µM | TGI [9]: > 10 µM | TGI [10]: > 10 µM | TGI [11]: > 10 µM | TGI [12]: > 10 µM | TGI [13]: > 10 µM | TGI [14]: > 10 µM | TGI [15]: > 10 µM | TGI [16]: > 10 µM | TGI [17]: > 10 µM | TGI [18]: > 10 µM | TGI [19]: > 10 µM | TGI [20]: > 10 µM | TGI [21]: > 10 µM | TGI [22]: > 10 µM | TGI [23]: > 10 µM | TGI [24]: > 10 µM | TGI [25]: > 10 µM | TGI [26]: > 10 µM | TGI [27]: > 10 µM | TGI [28]: > 10 µM | TGI [29]: > 10 µM | TGI [30]: > 10 µM | TGI [31]: > 10 µM | TGI [33]: > 10 µM | TGI [34]: > 10 µM | TGI [35]: > 10 µM | TGI [36]: > 10 µM | TGI [37]: > 10 µM | TGI [38]: > 10 µM | TGI [39]: > 10 µM | TGI [40]: > 10 µM | TGI [41]: > 10 µM | TGI [42]: > 10 µM | TGI [43]: > 10 µM | TGI [44]: > 10 µM | TGI [45]: > 10 µM | TGI [46]: > 10 µM | TGI [47]: > 10 µM | TGI [48]: > 10 µM | TGI [49]: > 10 µM | TGI [50]: > 10 µM | TGI [51]: > 10 µM | TGI [52]: > 10 µM | TGI [53]: > 10 µM | TGI [54]: > 10 µM | TGI [55]: > 10 µM | TGI [56]: > 10 µM | TGI [57]: > 10 µM | TGI [58]: > 10 µM

Clc1ccc(-c2c(C3=NCCCN3)nnn2-c2ccc(Cl)cc2)cc1
TGI [1]: > 85.3 µM | TGI [2]: 53.5 µM | TGI [3]: 64.4 µM | TGI [4]: > 88.2 µM | TGI [59]: > 68.4 µM | TGI [5]: 90.4 µM | TGI [7]: 48.5 µM | TGI [8]: > 100 µM | TGI [9]: > 100 µM | TGI [10]: 36 µM | TGI [11]: > 100 µM | TGI [12]: 64.3 µM | TGI [13]: > 83.2 µM | TGI [14]: 44.1 µM | TGI [15]: > 100 µM | TGI [16]: 48.1 µM | TGI [17]: > 89.8 µM | TGI [18]: 67.5 µM | TGI [19]: 35.9 µM | TGI [20]: 33 µM | TGI [21]: 38.3 µM | TGI [60]: > 55.8 µM | TGI [22]: > 83.3 µM | TGI [23]: > 100 µM | TGI [24]: 34.6 µM | TGI [25]: > 75.4 µM | TGI [26]: > 100 µM | TGI [27]: > 77.5 µM | TGI [61]: > 77.7 µM | TGI [62]: > 100 µM | TGI [28]: > 77.2 µM | TGI [29]: > 94.1 µM | TGI [30]: > 75.6 µM | TGI [63]: > 59.5 µM | TGI [31]: > 82.6 µM | TGI [32]: 49.5 µM | TGI [33]: > 96.8 µM | TGI [34]: > 100 µM | TGI [64]: > 86.4 µM | TGI [35]: > 76.5 µM | TGI [36]: > 100 µM | TGI [37]: > 100 µM | TGI [38]: 60.9 µM | TGI [39]: > 83.3 µM | TGI [65]: > 59.8 µM | TGI [40]: > 100 µM | TGI [41]: > 77.5 µM | TGI [42]: 31.3 µM | TGI [43]: 62.4 µM | TGI [44]: > 100 µM | TGI [66]: > 100 µM | TGI [45]: > 77.1 µM | TGI [46]: 31.6 µM | TGI [47]: > 100 µM | TGI [48]: > 72.2 µM | TGI [49]: 53 µM | TGI [50]: > 100 µM | TGI [51]: 68.8 µM | TGI [67]: 35.9 µM | TGI [52]: 40.7 µM | TGI [53]: > 100 µM | TGI [54]: 64.5 µM | TGI [55]: > 75.8 µM | TGI [56]: > 100 µM | TGI [68]: 39.3 µM | TGI [57]: 32.8 µM | TGI [58]: > 100 µM

From PubChem BioAssay (NCI)
